Laboratory results published in ChEMBL document CHEMBL4266011 (ACS Med Chem Lett, 2018).

What was measured:
Carbonic anhydrase 3 = Carbonic anhydrase 3 (Homo sapiens, UniProt P07451)
Description: Inhibition of recombinant human CA3 preincubated for 15 mins prior to testing measured for 10 to 100 secs by phenol red based stopped-flow CO2 hydration assay

Carbonic anhydrase 4 = Carbonic anhydrase 4 (Homo sapiens, UniProt P22748)
Description: Inhibition of recombinant human CA4 preincubated for 15 mins prior to testing measured for 10 to 100 secs by phenol red based stopped-flow CO2 hydration assay

[1] = target: Carbonic anhydrase 5A, mitochondrial (Homo sapiens, UniProt P35218)
Description: Inhibition of recombinant human CA5a preincubated for 15 mins prior to testing measured for 10 to 100 secs by phenol red based stopped-flow CO2 hydration assay

[2] = target: Carbonic anhydrase 5B, mitochondrial (Homo sapiens, UniProt Q9Y2D0)
Description: Inhibition of recombinant human CA5b preincubated for 15 mins prior to testing measured for 10 to 100 secs by phenol red based stopped-flow CO2 hydration assay

Carbonic anhydrase 6 = Carbonic anhydrase 6 (Homo sapiens, UniProt P23280)
Description: Inhibition of recombinant human CA6 preincubated for 15 mins prior to testing measured for 10 to 100 secs by phenol red based stopped-flow CO2 hydration assay

Carbonic anhydrase 7 = Carbonic anhydrase 7 (Homo sapiens, UniProt P43166)
Sequence of Carbonic anhydrase 7 (P43166 whole entry): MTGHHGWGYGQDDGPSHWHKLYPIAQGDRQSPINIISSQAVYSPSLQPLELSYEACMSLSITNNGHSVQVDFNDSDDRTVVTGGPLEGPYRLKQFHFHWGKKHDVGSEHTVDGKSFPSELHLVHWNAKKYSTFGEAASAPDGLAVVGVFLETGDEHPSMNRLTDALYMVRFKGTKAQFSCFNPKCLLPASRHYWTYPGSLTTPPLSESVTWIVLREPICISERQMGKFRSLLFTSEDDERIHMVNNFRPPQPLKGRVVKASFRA
Description: Inhibition of recombinant human CA7 preincubated for 15 mins prior to testing measured for 10 to 100 secs by phenol red based stopped-flow CO2 hydration assay

Carbonic anhydrase 9 = Carbonic anhydrase 9 (Homo sapiens, UniProt Q16790)
Carbonic anhydrase 12 = Carbonic anhydrase 12 (Homo sapiens, UniProt O43570)
Sequence of Carbonic anhydrase 12 (O43570 whole entry): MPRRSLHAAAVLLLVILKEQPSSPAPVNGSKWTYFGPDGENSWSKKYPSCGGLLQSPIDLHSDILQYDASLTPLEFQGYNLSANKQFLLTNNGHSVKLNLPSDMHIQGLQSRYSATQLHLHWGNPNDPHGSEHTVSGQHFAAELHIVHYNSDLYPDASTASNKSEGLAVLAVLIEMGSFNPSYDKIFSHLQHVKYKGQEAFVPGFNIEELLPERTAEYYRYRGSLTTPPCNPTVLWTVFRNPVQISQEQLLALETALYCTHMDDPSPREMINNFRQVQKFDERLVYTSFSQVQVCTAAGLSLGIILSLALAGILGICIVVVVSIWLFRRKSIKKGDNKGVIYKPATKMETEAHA
Description: Inhibition of recombinant human CA12 preincubated for 15 mins prior to testing measured for 10 to 100 secs by phenol red based stopped-flow CO2 hydration assay

Carbonic anhydrase 13 = Carbonic anhydrase 13 (Homo sapiens, UniProt Q8N1Q1)
Sequence of Carbonic anhydrase 13 (Q8N1Q1 whole entry): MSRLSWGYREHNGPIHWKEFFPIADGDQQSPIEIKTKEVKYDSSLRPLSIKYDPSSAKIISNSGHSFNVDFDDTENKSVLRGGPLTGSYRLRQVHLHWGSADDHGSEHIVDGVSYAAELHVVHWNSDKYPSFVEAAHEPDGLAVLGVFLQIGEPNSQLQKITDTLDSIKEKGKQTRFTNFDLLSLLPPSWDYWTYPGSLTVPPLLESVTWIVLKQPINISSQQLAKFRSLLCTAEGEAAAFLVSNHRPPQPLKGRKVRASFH
Description: Inhibition of recombinant human CA13 preincubated for 15 mins prior to testing measured for 10 to 100 secs by phenol red based stopped-flow CO2 hydration assay

Carbonic anhydrase 14 = Carbonic anhydrase 14 (Homo sapiens, UniProt Q9ULX7)
Sequence of Carbonic anhydrase 14 (Q9ULX7 whole entry): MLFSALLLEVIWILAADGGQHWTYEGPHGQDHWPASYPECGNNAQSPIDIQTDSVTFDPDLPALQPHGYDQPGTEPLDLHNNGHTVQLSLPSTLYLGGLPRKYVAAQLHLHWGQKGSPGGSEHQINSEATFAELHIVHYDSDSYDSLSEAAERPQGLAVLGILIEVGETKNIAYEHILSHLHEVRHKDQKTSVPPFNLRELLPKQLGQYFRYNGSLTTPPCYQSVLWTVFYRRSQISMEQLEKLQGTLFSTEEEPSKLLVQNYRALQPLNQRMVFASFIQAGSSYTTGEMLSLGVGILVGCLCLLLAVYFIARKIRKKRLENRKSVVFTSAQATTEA
Description: Inhibition of recombinant human CA14 preincubated for 15 mins prior to testing measured for 10 to 100 secs by phenol red based stopped-flow CO2 hydration assay

Sequence of Carbonic anhydrase 3 (P07451 whole entry): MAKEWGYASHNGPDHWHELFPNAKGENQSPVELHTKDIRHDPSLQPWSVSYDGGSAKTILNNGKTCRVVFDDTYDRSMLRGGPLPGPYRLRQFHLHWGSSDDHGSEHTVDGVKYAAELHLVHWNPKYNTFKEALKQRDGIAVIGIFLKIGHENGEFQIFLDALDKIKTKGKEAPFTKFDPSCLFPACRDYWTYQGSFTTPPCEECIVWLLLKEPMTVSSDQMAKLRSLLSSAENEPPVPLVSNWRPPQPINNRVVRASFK
Sequence of Carbonic anhydrase 6 (P23280 whole entry): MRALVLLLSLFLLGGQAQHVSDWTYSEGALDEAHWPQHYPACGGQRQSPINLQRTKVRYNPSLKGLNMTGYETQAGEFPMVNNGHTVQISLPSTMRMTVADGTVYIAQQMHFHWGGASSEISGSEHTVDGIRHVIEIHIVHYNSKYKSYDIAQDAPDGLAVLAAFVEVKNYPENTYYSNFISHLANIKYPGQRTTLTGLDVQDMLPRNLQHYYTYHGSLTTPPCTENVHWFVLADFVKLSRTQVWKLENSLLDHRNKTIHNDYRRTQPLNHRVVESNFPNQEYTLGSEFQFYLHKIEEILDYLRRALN
Sequence of Carbonic anhydrase 5A, mitochondrial (P35218 whole entry): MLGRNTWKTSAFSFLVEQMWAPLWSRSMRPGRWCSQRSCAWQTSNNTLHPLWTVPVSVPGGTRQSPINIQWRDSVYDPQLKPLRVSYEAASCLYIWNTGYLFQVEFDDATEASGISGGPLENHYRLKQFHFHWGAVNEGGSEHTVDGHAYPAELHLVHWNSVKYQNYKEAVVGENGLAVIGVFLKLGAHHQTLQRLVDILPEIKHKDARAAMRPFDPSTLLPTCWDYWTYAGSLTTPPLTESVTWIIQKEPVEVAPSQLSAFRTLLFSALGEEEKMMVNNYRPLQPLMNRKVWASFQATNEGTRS
Sequence of Carbonic anhydrase 5B, mitochondrial (Q9Y2D0 whole entry): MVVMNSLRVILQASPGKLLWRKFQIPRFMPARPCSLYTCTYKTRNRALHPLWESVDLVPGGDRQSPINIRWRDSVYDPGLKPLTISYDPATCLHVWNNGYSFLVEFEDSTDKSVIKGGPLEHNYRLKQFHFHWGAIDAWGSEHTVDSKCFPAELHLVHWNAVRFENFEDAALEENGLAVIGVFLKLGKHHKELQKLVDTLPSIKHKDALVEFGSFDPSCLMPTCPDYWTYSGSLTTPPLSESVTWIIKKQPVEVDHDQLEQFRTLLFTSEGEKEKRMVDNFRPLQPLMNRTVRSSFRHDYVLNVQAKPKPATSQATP
Sequence of Carbonic anhydrase 4 (P22748 whole entry): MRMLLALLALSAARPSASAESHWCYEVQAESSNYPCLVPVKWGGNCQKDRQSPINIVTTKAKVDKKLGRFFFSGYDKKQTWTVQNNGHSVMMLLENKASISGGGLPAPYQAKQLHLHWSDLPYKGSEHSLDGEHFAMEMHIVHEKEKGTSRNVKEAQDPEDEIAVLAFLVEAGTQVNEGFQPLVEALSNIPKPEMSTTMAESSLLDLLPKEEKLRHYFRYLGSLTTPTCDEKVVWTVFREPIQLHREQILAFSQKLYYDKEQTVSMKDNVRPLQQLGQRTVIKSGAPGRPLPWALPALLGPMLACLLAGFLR

Ki (Carbonic anhydrase 3): > 10000 nM
Ki (Carbonic anhydrase 4): 939 nM
Ki [1]: 1430 nM
Ki [2]: 5330 nM
Ki (Carbonic anhydrase 6): 98.2 nM
Ki (Carbonic anhydrase 7): 3 nM
Ki (Carbonic anhydrase 9): 126 nM
Ki (Carbonic anhydrase 12): 45.3 nM
Ki (Carbonic anhydrase 13): 172 nM
Ki (Carbonic anhydrase 14): 677 nM
SMILES: NC(N)=Nc1nc(CSCCC(N)=NS(N)(=O)=O)cs1 [FAMOTIDINE]
